This note sets out measurements from patent publication US12435112B2, “Adenovirus comprising a modified adenovirus hexon protein” (UNIVERSITÄT ULM, priority 2019, dated 2025).

The experiment has as its system MSCs. Briefly: Transduction of MSCs with or without enhancing molecules. Format: cell-based, human. As to conditions: enhancer pre-incubated with adenovirus. As for the experimental part:
Transduction of MSCs by HAdV5 or HAdV5-Mut3, with or without Enhancing Molecules
MSCs were seeded in 1 mL PL-containing BioWhittaker® Alpha minimum essential medium (Lonza) in 24-well plates. The next day, the indicated viral vector particles were pre-incubated with or without enhancing molecules for 30 minutes at 37° C. in a total volume of 300 μL in PL-free medium. As enhancing molecules, Factor X (250-2000 ng/mL), Spermidine (1-625 ng/μL), Spermine (1-1000 ng/μL), Polybrene (0.08-81 μg/μL), Poly-L-Lysine (1-25% v/v) and Lactoferrin (1-1000 μg/mL) were used. Subsequently, MSCs were washed and 500 μL PL-free medium was provided. Cells were transduced by adding 300 μL of the pre-incubated viral particles (resulting in the indicated pMOI) and incubated for 2 hours at 37° C. Afterwards, cells were washed, and 1 mL of PL-containing medium was added. 72 hours after transduction, MSCs were detached and eGFP expression was analyzed by flow cytometry.
Amount of Enhancers Used for Pre-Incubation of HAdV5:
Transduction of MSCs by HAdV5, HAdV5-Mut3, HAdV5-ΔCAR-Mut3, HAdV5-ΔHVR1 or HAdV5-Mut2
Transduction of MSCs with a pMOI of 1000 was performed as described in section “Transduction of MSCs by HAdV5 or HAdV5-Mut3, with or without enhancing molecules”, except that MSCs were detached and eGFP expression was analyzed by flow cytometry 24 hours after transduction. No enhancing molecules were used.

On to `NCCCCNCCCN` [Spermidine], for which the “enhanced transduction of MSCs with adenoviruses by transduction enhancer” value is listed as “most pronounced”.

Consider `NCCCNCCCCNCCCN` [Spermine], for which the “enhanced transduction of MSCs with adenoviruses by transduction enhancer” value is given as “most pronounced”.
